The values that follow come from PMC10788917 (Journal of Medicinal Chemistry, 2023).

Changes are numbered by the printed parent chain.

Holding throughout (assay): HDAC8 mutant biochemical assay
Assay [1] has as its target T1, HDAC8 Cys102Ser/Cys153Ser/Cys287Ser (Homo sapiens, UniProt Q9BY41, C102S/C153S/C287S).
T1 construct: made in house
T1 sequence (Q9BY41 1-377 C102S/C153S/C287S): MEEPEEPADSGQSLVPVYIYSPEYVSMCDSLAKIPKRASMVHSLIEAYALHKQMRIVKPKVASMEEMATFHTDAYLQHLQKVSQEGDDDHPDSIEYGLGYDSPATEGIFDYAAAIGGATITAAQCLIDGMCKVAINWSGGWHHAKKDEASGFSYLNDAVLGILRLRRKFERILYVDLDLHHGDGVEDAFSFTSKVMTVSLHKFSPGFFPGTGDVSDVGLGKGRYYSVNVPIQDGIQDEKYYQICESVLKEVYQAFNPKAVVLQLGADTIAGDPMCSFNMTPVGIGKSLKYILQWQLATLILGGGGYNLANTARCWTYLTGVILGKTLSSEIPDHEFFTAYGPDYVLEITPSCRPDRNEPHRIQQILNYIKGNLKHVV
The following applies: read-out: IC50 [μM] @ 100 nM HDAC8: G Cys102Ser/Cys153Ser/Cys287Ser, 1 h preincubation. The procedure:
(§1) HDAC8 mutant variants were generated, produced, and further purified as described previously.[32] Cysteines 28 and 314 were exchanged with serine using the following primer pairs: HD8_C28S_for, […]; HD8_C28S_rev, […]; HD8_C314S_for, […]; HD8_C314S_rev, […].
(§2) The enzyme activity assay was performed in assay buffer [25 mM Tris-HCl (pH 8.0), 50 mM NaCl, and 0.001% (v/v) Pluronic F-68] in black half-area 96-well microplates (Greiner Bio-One). For the initial screening, 10 nM HDAC8 was preincubated with the indicated compounds at 250 μM for 2 h at 30 °C. […] The reaction was initiated by the addition of 20 μM Boc-Lys(TFA)-AMC (Bachem). After substrate conversion at 30 °C for 15 min for HDAC8 and 1 h for HDAC8 mutants and HDAC4, the reaction was stopped by adding 1.67 μM suberoylanilide trifluoromethylketone (SATFMK). The deacetylated substrate was cleaved with 0.42 mg/mL trypsin to release fluorescent 7-amino-4-methylcoumarin (AMC), which was detected with a microplate reader (PHERAstar FS […]) with fluorescence excitation at 360 nm and emission at 460 nm. IC50 values were calculated by generating dose–response curves in GraphPad Prism 6 and fitting those to a four-parameter logistic model.

The target in assay [2] is T2, HDAC8 Cys102Ser/Cys153Ser (Homo sapiens, UniProt Q9BY41, C102S/C153S).
T2 construct: made in house
T2 sequence (Q9BY41 1-377 C102S/C153S): T1 sequence (Q9BY41 1-377 C102S/C153S/C287S) with S287C
The following applies: read-out: IC50 [μM] @ 100 nM HDAC8: A Cys102Ser/Cys153Ser, 1 h preincubation. Here is the method: as §1, §2

In assay [3] the target is T3, HDAC8 Cys102Ser/Cys153Ser/Cys131Ser (Homo sapiens, UniProt Q9BY41, C102S/C131S/C153S).
T3 construct: made in house
T3 sequence (Q9BY41 1-377 C102S/C131S/C153S): T1 sequence (Q9BY41 1-377 C102S/C153S/C287S) with C131S, S287C
The following applies: read-out: IC50 [μM] @ 100 nM HDAC8: D Cys102Ser/Cys153Ser/Cys131Ser, 1 h preincubation. The procedure: as §1, §2

Assay [4] has as its target T4, HDAC8 Cys102Ser/Cys153Ser/Cys275Ser (Homo sapiens, UniProt Q9BY41, C102S/C153S/C275S).
T4 construct: made in house
T4 sequence (Q9BY41 1-377 C102S/C153S/C275S): T1 sequence (Q9BY41 1-377 C102S/C153S/C287S) with C275S, S287C
Particulars: read-out: IC50 [μM] @ 100 nM HDAC8: F Cys102Ser/Cys153Ser/Cys275Ser, 1 h preincubation. Here is the method: as §1, §2

Take `C[n+]1ccccc1I` [A3+]: the IC50 in assay [1] was over 130 µM; in assay [2] it was 59 ± 4 µM; in assay [3], 42 ± 4 µM; in assay [4], 24 ± 3 µM.
The corresponding values for `C[n+]1ccc(I)cc1` [C3+] are over 130 µM, 68 ± 5 µM, 36 ± 8 µM and 17 ± 1 µM.
With `C#Cc1cc[n+](C)cc1` [C6+], the IC50 came out at 34 ± 2 µM in assay [1], 14 ± 1 µM in assay [2], 3.3 ± 0.3 µM in assay [3] and 4.2 ± 0.3 µM in assay [4].
With `C[n+]1cccnc1Cl` [D1+], the IC50 in assay [1] is over 130 µM; in assay [2], 60 ± 9 µM; in assay [3], 49 ± 6 µM; in assay [4] it was 13 ± 3 µM.
For `C[n+]1cccnc1Br` [D2+] the same measures were over 130 µM, 23 ± 3 µM, 18 ± 4 µM and 35 ± 14 µM.
For `C[n+]1cccnc1I` [D3+] the same measures were 51 ± 7 µM, 14 ± 1 µM, 8 ± 1 µM and 16 ± 2 µM.
For `C#Cc1nccc[n+]1C` [D6+] the same measures were over 130 µM, over 130 µM, 93 ± 13 µM and 107 ± 10 µM.
For the compound `C[n+]1cncc(Br)c1` [F2+], the IC50 is 95 ± 8 µM in assay [1], 29 ± 1 µM in assay [2], 25 ± 2 µM in assay [3] and 19 ± 4 µM in assay [4].
For the compound `C[n+]1cncc(I)c1` [F3+], the IC50 in assay [1] was over 130 µM; in assay [2], 16 ± 3 µM; in assay [3], 15 µM; in assay [4], 15 µM.
`C#Cc1c[n+](C)ccn1` [G6+]: the IC50 in assay [1] is 73 ± 6 µM; in assay [2] it was 97 ± 34 µM; in assay [3], 55 ± 12 µM; in assay [4], 64 ± 16 µM.
